Data on four compounds can be found in patent US11370804B2, “Complex of gadolinium and a chelating ligand derived from a diastereoisomerically enriched PCTA and preparation and purification process” (GUERBET, priority 2020, dated 2022).

A short description of data set [1]: decomplexation kinetics (kinetic inertia) in acidic aqueous solution, pH 1.2, 37° C. It counts as physicochemical. To be noted: same conditions (pH 1.2, 37° C.), comparative. The protocol:
Besides, iso4 is the group of isomers which has the best kinetic inertia (also known as kinetic stability) among the four groups isolated by the inventors. Specifically, the inventors evaluated the kinetic inertia of the four groups of isomers by studying their decomplexation kinetics in acidic aqueous solution (pH=1.2), at 37° C. The half-life time values (T1/2) which were determined for each of the groups of isomers are indicated in table 1 below, the half-life time corresponding to the time after which 50% of the amount of complex initially present has been dissociated, according to the following decomplexation reaction (equation 2): […]

For data set [2] the following is noted: as described in WO 2014/174120 / for comparative purposes; cited from earlier work.

In the case of `O=C([O-])CN1CCN(CC(=O)[O-])CCN([C@H](CO)[C@H](O)CO)CCN(CC(=O)[O-])CC1.[Gd+3]` (racemic) [gadobutrol], the kinetic inertia in data set [1] stood at 18 h.

Take `O=C([O-])CN1CCN(CC(=O)[O-])CCN(CC(=O)O)CCN(CC(=O)[O-])CC1.[Gd+3]` [DOTA-Gd, gadolinium complex of 1,4,7,10-tetraazacyclododecane-N,N′,N″,N′″-tetraacetic acid]: in data set [1], the kinetic inertia was 96 h. Further, in data set [2], the “log (Ktherm), stability constant” value is listed as 25.6.

As to `CNC(=O)CN(CCN(CCN(CC(=O)[O-])CC(=O)NC)CC(=O)[O-])CC(=O)[O-].[Gd+3]` [gadodiamide], the “kinetic inertia (dissociation, in words)” value in data set [1] is given as “dissociate instantaneously”.

`O=C([O-])CN(CCN(CC(=O)[O-])CC(=O)O)CCN(CC(=O)[O-])CC(=O)O.[Gd+3]` [gadopentetate]: the “kinetic inertia (dissociation, in words)” value in data set [1] is “dissociate instantaneously”.
